# US11279726B2, “Norbornene-based amphipathic compound and utilization thereof” (Industry-University Cooperation Foundation Hanyang …, priority 2017, dated 2022)
# Entries after “also recorded” stand apart in the source; their conditions may differ.
# Experiments:
# [1] = molecular target: T1, human β2 adrenergic receptor (β2AR) (Homo sapiens, UniProt P07550); assay: β2AR stability: [3H]-DHA ligand binding activity of solubilized receptor; details: 0.2% amphiphile, room temperature, 3 days (7 days for receptor extracted with the amphiphile)
# T1 construct: made in house
# Procedure: An experiment of measuring the stability of human β2 adrenergic receptor (β2AR) and G-protein-coupled receptor (GPCR) for NBMs was carried out. That is, the receptor was extracted from the cell membranes by DDM and purified in the same amphiphilic compound. The DDM-purified receptor was diluted in individual DDM- or NBM-containing buffers to adjust the final compound concentration to be CMC+0.2 wt %. The receptor stability was assessed by measuring ligand binding activity using [3H]-DHA.
# To measure long-term stability of human β2AR with NBMs (D-NBM-C11 and X-NBM-C11) showing an excellent ligand binding activity of the receptor in the previous experiment, a radio-labeled ligand binding experiment was performed by the following method. β2AR was purified using 0.1% DDM (D. M. Rosenbaum et al., Science, 2007, 318, 1266-1273), and finally concentrated to approximately 10 mg/ml (approximately 200 μM). A main binding mixture containing 10 nM [^3H]-DHA supplemented with 0.5 mg/ml BSA was prepared in 0.2% amphiphilic compound (DDM or NBMs (D-NBM-C11 and X-NBM-C11)) using β2AR purified with DDM. The receptor purified with DDM or NBMs was incubated with 10 nM [^3H]-DHA at room temperature for 30 minutes. The mixture was loaded onto a G-50 column, the fractions were collected in a 1 ml binding buffer (20 mM HEPES pH 7.5, 100 mM NaCl, containing 0.5 mg/ml BSA and 20× CMC individual amphiphilic compounds). In addition, each fraction was supplemented with a 15 ml scintillation fluid, and receptor-bound [^3H]-DHA was measured using a scintillation counter (Beckman) at regular intervals for 3 days. The binding capacity of [^3H]-DHA was shown as a bar chart (FIG. 11a).
# In addition, β2AR was extracted from the membrane using 1.0 wt % of DDM or X-NBM-C11 and purified at 0.2 wt % for the same individual amphiphilic compounds. Structural stability of the receptor was assessed by ligand binding activity, which was measured with sample aliquots at regular intervals during 7-day incubation at room temperature. Each experiment was carried out in triplicate (FIG. 12b).
# [2] = Hydrodynamic radius / size distribution of micelles by dynamic light scattering (DLS); type: physicochemical; details: for Rh (nm), hydrodynamic radius of micelles: 1.0 wt % agent; for Micelle size change with temperature: temperature-dependent (FIGS. 7a, 7b)
# Procedure: A method for measuring the radius of a micelle is not particularly limited, and a method well known in the art may be used, and for example, the radius thereof may be measured using a dynamic light scattering (DLS) experiment.
# (§1) To identify the characteristics of NBMs synthesized in Preparation Example 1 to 6 according to the synthetic method of Example 1, molecular weights (MWs) of NBMs, critical micelle concentrations (CMCs) and hydrodynamic radii (Rh) of the micelles were measured.
# (§2) Specifically, the critical micelle concentrations (CMCs) were measured by fluorescent staining with diphenylhexatriene (DPH), and the hydrodynamic radii (Rh) of the micelle formed with individual agents (1.0 wt %) were measured by dynamic light scattering (DLS).
# [3] = molecular target: T2, uric acid-xanthine/H+ symporter (UapA) (Emericella nidulans, UniProt Q07307, G411V); assay: UapA extraction and thermal stability by fluorescence size exclusion chromatography (FSEC); set-up: species or system Aspergillus nidulans; details: 1.0 wt % amphiphile; for Retention of monodispersed UapA-GFP peak after heating (FSEC): 10 minutes at 40° C., compared with DDM
# T2 construct: made in house; host or cells: Saccharomyces cerevisiae FGY217
# Procedure: An experiment for measuring the structural stability of uric acid-xanthine/H+ symporter (UapA) isolated from Aspergillus nidulans using NBMs was performed. The structural stability of UapA was evaluated using […].
# Specifically, UapAG411VΔ1-11 (hereinafter, referred to as “UapA”) was expressed as GFP fusion in Saccharomyces cerevisiae FGY217 strain and isolated in a sample buffer (20 mM Tris (pH 7.5), 150 mM NaCl, 0.03% DDM, 0.6 mM xanthine) according to the method described in the literature written by J. Leung et al. (Mol. Membr. Biol. 2013, 30, 32-42). Membranes containing UapA were resuspended in PBS, 10 mM imidazole pH 8.0, 150 mM NaCl, 10% glycerol, and the protein concentration was measured. The membranes were adjusted to a concentration of 1 mg·ml^−1 and 1 ml aliquots were individually incubated with DDM or NBMs at a final amphiphilic material concentration of 1.0 wt % for 10 minutes at 40° C. 100 μl aliquots were removed from each tube, and a fluorescence reading was taken for each sample before and after ultracentrifugation at 150,000 g for 10 minutes to remove insoluble material. The remaining soluble fraction for each condition was submitted to fluorescent size exclusion chromatography (FSEC) using a Superose 6 column (GE Healthcare) equilibrated with DDM.
# [4] = Critical micelle concentration by fluorescent staining with diphenylhexatriene (DPH); type: physicochemical; details: aqueous solution
# Procedure: A method for measuring CMC is not particularly limited, and a method widely known in the art may be used, for example, by fluorescence staining with diphenylhexatriene (DPH).
# as §1, §2
# T1 sequence (P07550 whole entry): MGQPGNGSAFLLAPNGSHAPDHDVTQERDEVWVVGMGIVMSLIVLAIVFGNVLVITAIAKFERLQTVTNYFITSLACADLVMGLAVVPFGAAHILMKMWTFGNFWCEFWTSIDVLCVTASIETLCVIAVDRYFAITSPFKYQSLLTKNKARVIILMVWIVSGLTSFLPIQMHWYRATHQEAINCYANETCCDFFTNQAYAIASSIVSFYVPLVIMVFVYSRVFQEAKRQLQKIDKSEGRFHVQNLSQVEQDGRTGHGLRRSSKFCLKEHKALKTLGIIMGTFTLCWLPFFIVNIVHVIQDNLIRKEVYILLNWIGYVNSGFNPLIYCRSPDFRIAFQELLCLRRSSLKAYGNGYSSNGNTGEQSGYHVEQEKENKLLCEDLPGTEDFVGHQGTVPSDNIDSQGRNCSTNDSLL
# T2 sequence (Q07307 12-574 G411V): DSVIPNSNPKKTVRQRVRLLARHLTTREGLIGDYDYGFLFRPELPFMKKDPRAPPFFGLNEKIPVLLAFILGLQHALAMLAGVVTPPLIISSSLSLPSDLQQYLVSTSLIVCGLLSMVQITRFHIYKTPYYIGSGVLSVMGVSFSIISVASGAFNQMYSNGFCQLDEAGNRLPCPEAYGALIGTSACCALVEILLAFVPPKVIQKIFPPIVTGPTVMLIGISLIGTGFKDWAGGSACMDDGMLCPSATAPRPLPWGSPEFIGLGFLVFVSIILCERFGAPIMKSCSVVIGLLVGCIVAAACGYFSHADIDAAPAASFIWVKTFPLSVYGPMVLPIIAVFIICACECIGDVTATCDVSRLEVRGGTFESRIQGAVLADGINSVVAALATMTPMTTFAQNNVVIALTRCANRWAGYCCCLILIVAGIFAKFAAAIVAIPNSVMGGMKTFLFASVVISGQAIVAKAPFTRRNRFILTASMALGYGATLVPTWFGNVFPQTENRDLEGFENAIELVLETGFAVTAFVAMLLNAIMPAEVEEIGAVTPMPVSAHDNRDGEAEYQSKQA
SMILES,Long-term ligand binding activity of β2AR ([3H]-DHA) [1],"Rh (nm), hydrodynamic radius of micelles [2] [nm]",Micelle size change with temperature [2],Retention of monodispersed UapA-GFP peak after heating (FSEC) [3],CMC [4] [mM],CMC (wt %) [4] [wt %],UapA extraction efficiency from the cell membrane [3]
CCCCCCCCCCCOCC1C2CC([C@@H]1COCCCCCCCCCCC)[C@H](O[C@@H]1OC(CO)[C@@H](O[C@H]3OC(CO)[C@@H](O)C(O)C3O)C(O)C1O)C2O[C@@H]1OC(CO)[C@@H](O[C@H]2OC(CO)[C@@H](O)C(O)C2O)C(O)C1O (stereo partly drawn) [D-NBM-C11],well retained,3.7 ± 0.05,not influenced by a temperature change,a little better than DDM,~0.007,~0.0008,–
CCCCCCCCCCCOCC1C2CC([C@H]1COCCCCCCCCCCC)[C@H](O[C@@H]1OC(CO)[C@@H](O[C@H]3OC(CO)[C@@H](O)C(O)C3O)C(O)C1O)C2O[C@@H]1OC(CO)[C@@H](O[C@H]2OC(CO)[C@@H](O)C(O)C2O)C(O)C1O (stereo partly shown) [X-NBM-C11],well retained; also recorded: highest ligand binding retention property,17.3 ± 0.10,changed according to a temperature,substantially better than DDM,~0.006,~0.0007,almost quantitatively extract
